The conditions of this data set: rcm bond, Grubbs II.

Like-named read-outs stand apart in the source and are kept apart here.

Regarding `C=C(C)c1cc2c3c(c1)c(C(C)=O)nn3CC(=O)N1[C@H](C(=O)Nc3nc(C(F)(F)F)ccc3C)C[C@@]3(CNC(=O)CCCC=CC2)C[C@@H]13`, the ring closure, isolated yield (from C=CCCCC(=O)NC[C@@]12C[C@@H](C(=O)Nc3nc(C(F)(F)F)ccc3C)N(C(=O)Cn3nc(C(C)=O)c4cc(C(=C)C)cc(CC=C)c43)[C@@H]1C2, 17-membered ring, toluene, 1.43 mM, 80.0 °C, 16.0 h) came out at 21.7%.
As to `C=Cc1cc(-c2cnc(C)nc2)cc2c(C(C)=O)nn(CC(=O)N3[C@H](C(=O)Nc4nc(C(F)(F)F)ccc4C)C[C@@]4(CNC(=O)C[C@@H](C)CCC=C(C)C)C[C@@H]34)c12`, the ring closure, isolated yield (the molecule shown is the open-chain precursor, 17-membered ring, DCE, 1.25 mM, 50.0 °C) was 55.6%.
As for `CC(=O)c1nn2c3c(cc(-c4cnc(C)cn4)cc13)CC=CCC[C@@H](C)C(=O)NC[C@@]13C[C@@H](C(=O)Nc4nc(C(F)(F)F)ccc4C)N(C(=O)C2)[C@@H]1C3`, the ring closure, isolated yield (from C=CCC[C@@H](C)C(=O)NC[C@@]12C[C@@H](C(=O)Nc3nc(C(F)(F)F)ccc3C)N(C(=O)Cn3nc(C(C)=O)c4cc(-c5cnc(C)cn5)cc(CC=C)c43)[C@@H]1C2, 17-membered ring, toluene, 1.32 mM, 80.0 °C) was found to be 62.1%.
On to `CC(=O)c1nn2c3c(cc(-c4cnc(C)nc4)cc13)CC=CCC(C)(C)CC(=O)NC[C@@]13C[C@@H](C(=O)Nc4nc(C(F)(F)F)ccc4C)N(C(=O)C2)[C@@H]1C3`, for which the ring closure, isolated yield (from C=CCc1cc(-c2cnc(C)nc2)cc2c(C(C)=O)nn(CC(=O)N3[C@H](C(=O)Nc4nc(C(F)(F)F)ccc4C)C[C@@]4(CNC(=O)CC(C)(C)CC=C)C[C@@H]34)c12, 17-membered ring, toluene, 1.2 mM, 80.0 °C) was determined as 67.4%.
As for `CC(=O)c1nn2c3c(cc(-c4cnc(C)nc4)cc13)CC=CCCC(C)(C)C(=O)NC[C@@]13C[C@@H](C(=O)Nc4nc(C(F)(F)F)ccc4C)N(C(=O)C2)[C@@H]1C3`, under “from C=CCCC(C)(C)C(=O)NC[C@@]12C[C@@H](C(=O)Nc3nc(C(F)(F)F)ccc3C)N(C(=O)Cn3nc(C(C)=O)c4cc(-c5cnc(C)nc5)cc(CC=C)c43)[C@@H]1C2, 17-membered ring, toluene, 1.6 mM, 80.0 °C, 16.0 h”, the ring closure, isolated yield is 71.3%.
With `CC(=O)c1nn2c3c(cc(-c4cnc(C)nc4)cc13)CC=CCCCC(=O)N(C)C[C@@]13C[C@@H](C(=O)Nc4cc(F)cc(Br)n4)N(C(=O)C2)[C@@H]1C3`, for the setting “from C=CCCCC(=O)N(C)C[C@@]12C[C@@H](C(=O)Nc3cc(F)cc(Br)n3)N(C(=O)Cn3nc(C(C)=O)c4cc(-c5cnc(C)nc5)cc(CC=C)c43)[C@@H]1C2, 17-membered ring, toluene, 1.29 mM, 80.0 °C, 16.0 h”, the ring closure, isolated yield stood at 94.5%.
In the case of `CC(=O)c1nn2c3c(cc(-c4cnc(C)nc4)cc13)CC=CCCCCN(C(=O)OC(C)(C)C)C[C@@]13C[C@@H](C(=O)Nc4nc(C(F)(F)F)ccc4C)N(C(=O)C2)[C@@H]1C3`, the ring closure, isolated yield (from C=CCCCCN(C[C@@]12C[C@@H](C(=O)Nc3nc(C(F)(F)F)ccc3C)N(C(=O)Cn3nc(C(C)=O)c4cc(-c5cnc(C)nc5)cc(CC=C)c43)[C@@H]1C2)C(=O)OC(C)(C)C, 17-membered ring, toluene, 1.2 mM, 80.0 °C) was determined as 60.4%.
For `CC(=O)c1nn2c3c(cc(-c4cnc(C)nc4)cc13)CC=CCC[C@@H](C)C(=O)NC[C@@]13C[C@@H](C(=O)Nc4cc(F)cc(Br)n4)N(C(=O)C2)[C@@H]1C3`, for the setting “from C=CCC[C@@H](C)C(=O)NC[C@@]12C[C@@H](C(=O)Nc3cc(F)cc(Br)n3)N(C(=O)Cn3nc(C(C)=O)c4cc(-c5cnc(C)nc5)cc(CC=C)c43)[C@@H]1C2, 17-membered ring, toluene, 1.63 mM, 80.0 °C, 16.0 h”, the ring closure, isolated yield was determined as 72.6%.
For `CC(=O)c1nn2c3c(cc(-c4cnc(C)nc4)cc13)CC=CCC[C@@H](C)C(=O)NC[C@@]13C[C@@H](C(=O)Nc4ccc(F)c(Br)n4)N(C(=O)C2)[C@@H]1C3`, the ring closure, isolated yield (from C=CCC[C@@H](C)C(=O)NC[C@@]12C[C@@H](C(=O)Nc3ccc(F)c(Br)n3)N(C(=O)Cn3nc(C(C)=O)c4cc(-c5cnc(C)nc5)cc(CC=C)c43)[C@@H]1C2, 17-membered ring, toluene, 1.67 mM, 80.0 °C) is 62.8%.
As to `CC(=O)c1nn2c3c(cc(-c4cnc(C)nc4)cc13)CCCCCCC=CCCN([C@@H](C)C(=O)Nc1nc(Br)ccc1C)C(=O)C2`, under “from C=CCCCCCCc1cc(-c2cnc(C)nc2)cc2c(C(C)=O)nn(CC(=O)N(CCC=C)[C@@H](C)C(=O)Nc3nc(Br)ccc3C)c12, 16-membered ring, toluene, 1.33 mM, 80.0 °C, 16.0 h”, the ring closure, isolated yield is 88.9%.
Consider `CC(=O)c1nn2c3c(cc(-c4cnc(C)nc4)cc13)CCCCCCC=CCc1ccc(Br)nc1NC(=O)[C@H](C)N(C)C(=O)C2`, for which, where the note is “from C=CCCCCCCc1cc(-c2cnc(C)nc2)cc2c(C(C)=O)nn(CC(=O)N(C)[C@@H](C)C(=O)Nc3nc(Br)ccc3CC=C)c12, 20-membered ring, toluene, 1.4 mM, 80.0 °C, 16.0 h”, the ring closure, isolated yield was found to be 63.8%.
`CC(=O)c1nn2c3c(cc(-c4cnc5cc(C)nn5c4)cc13)CC=CCC[C@@H](C)C(=O)NC[C@@]13C[C@@H](C(=O)Nc4nc(C(F)(F)F)ccc4C)N(C(=O)C2)[C@@H]1C3` gave a ring closure, isolated yield (from C=CCC[C@@H](C)C(=O)NC[C@@]12C[C@@H](C(=O)Nc3nc(C(F)(F)F)ccc3C)N(C(=O)Cn3nc(C(C)=O)c4cc(-c5cnc6cc(C)nn6c5)cc(CC=C)c43)[C@@H]1C2, 17-membered ring, toluene, 1.64 mM, 80.0 °C) of 66.7%.
On to `CC(=O)c1nn2c3c(cc(-c4nnc(C)o4)cc13)CC=CCCCC(=O)NC[C@@]13C[C@@H](C(=O)Nc4nc(C(F)(F)F)ccc4C)N(C(=O)C2)[C@@H]1C3`, for which the ring closure, isolated yield (from C=CCCCC(=O)NC[C@@]12C[C@@H](C(=O)Nc3nc(C(F)(F)F)ccc3C)N(C(=O)Cn3nc(C(C)=O)c4cc(-c5nnc(C)o5)cc(CC=C)c43)[C@@H]1C2, 17-membered ring, toluene, 1.36 mM, 80.0 °C, 16.0 h) is 83.2%.
In the case of `CC(=O)c1nn2c3c(cc(C)cc13)CC=CCCCC(=O)NC[C@@]13C[C@@H](C(=O)Nc4nc(C(F)(F)F)ccc4C)N(C(=O)C2)[C@@H]1C3`, the ring closure, isolated yield runs as follows: (from C=CCCCC(=O)NC[C@@]12C[C@@H](C(=O)Nc3nc(C(F)(F)F)ccc3C)N(C(=O)Cn3nc(C(C)=O)c4cc(C)cc(CC=C)c43)[C@@H]1C2, 17-membered ring, toluene, 1.77 mM, 80.0 °C, 16.0 h) 86.7%; (from C=CCCCC(=O)NC[C@@]12C[C@@H](C(=O)Nc3nc(C(F)(F)F)ccc3C)N(C(=O)Cn3nc(C(C)=O)c4cc(C)cc(CC=C)c43)[C@@H]1C2, 17-membered ring, toluene, 1.88 mM, 80.0 °C, 12.0 h) 62.6%.
As for `CC(=O)c1nn2c3c(cc(C=C(C)C)cc13)CC=CCCCC(=O)NC[C@@]13C[C@@H](C(=O)Nc4nc(C(F)(F)F)ccc4C)N(C(=O)C2)[C@@H]1C3`, under “from C=CCCCC(=O)NC[C@@]12C[C@@H](C(=O)Nc3nc(C(F)(F)F)ccc3C)N(C(=O)Cn3nc(C(C)=O)c4cc(C=C(C)C)cc(CC=C)c43)[C@@H]1C2, 17-membered ring, toluene, 1.67 mM, 80.0 °C, 16.0 h”, the ring closure, isolated yield was determined as 69.4%.
Take `CC(=O)c1nn2c3c(cc(CCC(C)C)cc13)CC=CCCCC(=O)NC[C@@]13C[C@@H](C(=O)Nc4nc(C(F)(F)F)ccc4C)N(C(=O)C2)[C@@H]1C3`: the ring closure, isolated yield (from C=CCCCC(=O)NC[C@@]12C[C@@H](C(=O)Nc3nc(C(F)(F)F)ccc3C)N(C(=O)Cn3nc(C(C)=O)c4cc(CCC(C)C)cc(CC=C)c43)[C@@H]1C2, 17-membered ring, toluene, 1.38 mM, 80.0 °C, 16.0 h) was 27.7%.
For the setting “from C=CCCCC(=O)NC[C@@]12C[C@@H](C(=O)Nc3nc(C(F)(F)F)ccc3C)N(C(=O)Cn3nc(C(C)=O)c4cc(N5CCCC5)cc(CC=C)c43)[C@@H]1C2, 17-membered ring, toluene, 2.0 mM, 80.0 °C, 16.0 h”, `CC(=O)c1nn2c3c(cc(N4CCCC4)cc13)CC=CCCCC(=O)NC[C@@]13C[C@@H](C(=O)Nc4nc(C(F)(F)F)ccc4C)N(C(=O)C2)[C@@H]1C3` showed a ring closure, isolated yield of 92.5%.
As for `CC(=O)c1nn2c3c(cc(NC(=O)OC(C)(C)C)cc13)CC=CCCCC(=O)NC[C@@]13C[C@@H](C(=O)Nc4nc(C(F)(F)F)ccc4C)N(C(=O)C2)[C@@H]1C3`, the ring closure, isolated yield (from C=CCCCC(=O)NC[C@@]12C[C@@H](C(=O)Nc3nc(C(F)(F)F)ccc3C)N(C(=O)Cn3nc(C(C)=O)c4cc(NC(=O)OC(C)(C)C)cc(CC=C)c43)[C@@H]1C2, 17-membered ring, toluene, 1.3 mM, 80.0 °C, 16.0 h) amounted to 78.9%.
With `CC(=O)c1nn2c3c(cc(OCC(C)C)cc13)CC=CCCCC(=O)NC[C@@]13C[C@@H](C(=O)Nc4nc(C(F)(F)F)ccc4C)N(C(=O)C2)[C@@H]1C3`, the ring closure, isolated yield (from C=CCCCC(=O)NC[C@@]12C[C@@H](C(=O)Nc3nc(C(F)(F)F)ccc3C)N(C(=O)Cn3nc(C(C)=O)c4cc(OCC(C)C)cc(CC=C)c43)[C@@H]1C2, 17-membered ring, toluene, 1.71 mM, 80.0 °C, 16.0 h) came out at 92%.
The molecule `CC(=O)c1nn2c3c(cc(Oc4ncc(C)cn4)cc13)CC=CCCCC(=O)NC[C@@]13C[C@@H](C(=O)Nc4nc(C(F)(F)F)ccc4C)N(C(=O)C2)[C@@H]1C3` had a ring closure, isolated yield (from C=CCCCC(=O)NC[C@@]12C[C@@H](C(=O)Nc3nc(C(F)(F)F)ccc3C)N(C(=O)Cn3nc(C(C)=O)c4cc(Oc5ncc(C)cn5)cc(CC=C)c43)[C@@H]1C2, 17-membered ring, toluene, 1.5 mM, 80.0 °C) of 61.5%.
For the setting “from C=CCCCCCCc1ccc(Br)nc1NC(=O)[C@H](CC=C)N(C)C(=O)OCc1ccccc1, 14-membered ring, toluene, 1.85 mM, 80.0 °C, 16.0 h”, `CN(C(=O)OCc1ccccc1)[C@H]1CC=CCCCCCCc2ccc(Br)nc2NC1=O` came in with a ring closure, isolated yield of 79.6%.
For the setting “the molecule shown is the open-chain precursor, 17-membered ring, toluene, 1.43 mM, 80.0 °C”, “(1,R,3S,5R)-2-{2-[3-Acetyl-5-methoxy-7-(prop-2-en-1-yl)indazol-1-yl]acetyl}-5-(hex-5-enamidonaethyl)-N-[3-methyl-6-(trifluoromethyl)pyridin-2-yl]-2-azabicyclo[3.1.0]hexane-3-carboxamide” registered a ring closure, isolated yield of 69.1%.
Take “(1R,3S,5R)-2-(2-(3-Acetyl-7-allyl-5-(2-methylpyrimidin-5-yl)-1H-indazol-1-yl)acetyl)-N-(3-methyl-6-(trifluoromethyl)pyridin-2-yl)-5-(((R)-2-methylhex-5-amido)methyl)-2-azabicyclo[3.1.0]hexane-3-carboxamide”: for the setting “the molecule shown is the open-chain precursor, 17-membered ring, toluene, 1.72 mM, 80.0 °C”, the ring closure, isolated yield came out at 47.9%.
